*1 amine or outer side, *2 acyl side, *3 side chain or, on linkers, in order; H or OH if unused. Where a SMILES comes first, the peptide text is derived from it. Side-chain parts run from the residue outwards. [ ]: non-standard residue; d: D form. The star is where a group is joined. C18 diacid = O=C(O)CCCCCCCCCCCCCCCCC(=O)*; C16 diacid = O=C(O)CCCCCCCCCCCCCCC(=O)*; γGlu = O=C(O)[C@H](CCC(=O)[*:2])N[*:1]; Api = NC1(C(=O)O)CCNCC1; Abu = CC[C@H](N)C(=O)O; Aib = CC(C)(N)C(=O)O
How the values were obtained:
[1] = In vitro plasma stability, rat plasma; assay type: in vitro ADME; design: remaining at 2 h: dose or concentration left out as unconfirmed; conditions: male, Sprague Dawley, plasma; Rat PLM, 37° C.
Protocol: (§1) In vitro plasma metabolic stability was studied in male Sprague Dawley rats and human. Test compounds were incubated at 3 M for 2 hours at 37° C. At each time point (0, 0.25, 1 and 2 h), samples were prepared for analysis by means of a single step protein precipitation technique by adding 150 μL of ethanol, 0.1% formic acid to 50 μL aliquots of plasma. Samples were mixed by vortex for homogeneity and then subjected to centrifugation at 14000 rpm for 15 min. The supernatant (100 μL) was collected, diluted with 100 μL of water, 0.1% formic acid and analyzed by LC-HRMS (TripleTOF 6600+, AB Sciex). For each test compound, the area ratios at each time point were compared to the 0 h area ratio and converted to a percentage remaining.

CFR1R receptor = target: T1, CFR1R receptor (Homo sapiens, UniProt P34998); test: Activity at anti-target CFR1R receptor, cAMP assay in CRF1R-overexpression CHO-K1 cells; assay type: cell-based; conditions: 100% = Sauvagine at 100 nM; for EC50: cAMP
T1 construct: host or cells: CHO-K1 (clone 2)
T1 sequence (P34998 24-415): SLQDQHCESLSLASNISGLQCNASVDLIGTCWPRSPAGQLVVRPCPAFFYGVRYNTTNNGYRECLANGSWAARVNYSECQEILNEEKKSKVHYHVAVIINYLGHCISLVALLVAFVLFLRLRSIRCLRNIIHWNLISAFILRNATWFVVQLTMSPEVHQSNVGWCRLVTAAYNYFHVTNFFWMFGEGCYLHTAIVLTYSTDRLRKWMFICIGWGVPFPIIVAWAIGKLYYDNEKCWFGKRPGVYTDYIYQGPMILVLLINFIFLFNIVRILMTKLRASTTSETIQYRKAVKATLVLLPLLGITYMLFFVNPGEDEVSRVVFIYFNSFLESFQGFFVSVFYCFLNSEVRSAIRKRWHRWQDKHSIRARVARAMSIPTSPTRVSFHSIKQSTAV
Procedure, shortened: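 The method mirrors that used with TeloHAEC cells. Here, thawed clone 2 cells seeded at 4000 cells/well are tested, and 100 nM Sauvagine sets the top of the activation scale.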

human CRF2a receptor = target: T2, human CRF2a receptor (Homo sapiens, UniProt Q13324); test: Activity at human CRF2a receptor, cAMP functional assay in TeloHEAC cells; assay type: cell-based; conditions: TeloHEAC cells stably expressing human CRF2a receptor, relative to urocortin 2 (100 nM = 100%)
T2 construct: expressed in transfected cells; host or cells: TeloHEAC cells
T2 sequence (Q13324 1-411): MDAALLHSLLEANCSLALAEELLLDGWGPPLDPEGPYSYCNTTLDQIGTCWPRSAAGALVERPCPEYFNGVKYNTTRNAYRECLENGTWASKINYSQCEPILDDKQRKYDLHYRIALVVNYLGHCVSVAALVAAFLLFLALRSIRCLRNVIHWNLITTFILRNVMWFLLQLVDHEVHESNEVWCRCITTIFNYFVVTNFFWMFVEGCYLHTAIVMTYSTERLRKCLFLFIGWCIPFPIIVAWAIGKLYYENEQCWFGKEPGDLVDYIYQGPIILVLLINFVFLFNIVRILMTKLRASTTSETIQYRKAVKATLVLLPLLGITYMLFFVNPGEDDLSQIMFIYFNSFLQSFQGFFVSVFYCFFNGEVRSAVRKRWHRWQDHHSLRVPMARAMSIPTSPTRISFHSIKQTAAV
Procedure, shortened: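 cAMP accumulation was measured by HTRF 665/620 nm ratio after 30 min at 37° C compound exposure (16 twofold dilutions) of CRF2a-expressing TeloHEAC cells, 10000/well, in HEPES-buffered HBSS plus IBMX. Activity was normalised to urocortin 2 at 100 nM (100%), and EC50 was the concentration giving half-maximal activation.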

[2] = Chemical stability in buffer (pH 7.4 / pH 4.5), % purity loss; assay type: physicochemical; conditions: 40° C. vs 5° C., 14 or 28 days; for Buffer stability pH 4.5 % purity loss: 100 mM acetate buffer pH 4.5; for Buffer stability pH 7.4 % purity loss: 100 mM phosphate buffer pH 7.4
Procedure, shortened: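 LC-UV gave % loss after 14 or 28 days of storage at 5 °C or 40 °C. Samples were diluted supernatants from compound incubated 1 h at room temperature at 10 mg/mL target, in 100 mM acetate pH 4.5 or 100 mM phosphate pH 7.4.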

[3] = In vitro plasma stability, human plasma; assay type: in vitro ADME; design: dose or concentration left out as unconfirmed; conditions: Human PLM, 37° C.
Protocol: as §1

Sprague Dawley rats = test: Effect on systolic blood pressure, telemetry in Sprague Dawley rats; assay type: in vivo, rat; conditions: 0.1 mg/kg SC; for Systolic blood pressure (Mean) % change from baseline, 8 h / Systolic blood pressure (Mean) % change from baseline, 12 h / Systolic blood pressure (Mean) % change from baseline, 24 h: n=2; for Duration of action: last time point with an effect on BP still observed
Procedure, shortened: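 Values are % change from a 1 h pre-dose baseline in systolic pressure, tracked by telemetry for up to 48 hours after a single 0.1 mg/kg subcutaneous dose. Rats (Sprague Dawley, n=2 per peptide) carried aortic catheters and recovered at least 10 days post-surgery; duration of action marks the last time point still showing an effect.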

[4] = In vitro plasma stability, minipig plasma; assay type: in vitro ADME; design: remaining at 2 h: dose or concentration left out as unconfirmed; conditions: pig, plasma; Minipig PLM, 37° C.
Minipig PLM = conditions: 37° C., up to 2 hours
Human PLM = conditions: 37° C., up to 2 hours
Rat PLM = conditions: male Sprague Dawley rats, 37° C., up to 2 hours
[5] = In vitro subcutaneous tissue supernatant (SCts) stability and metabolite identification, rat; assay type: in vitro ADME; design: remaining at 2 h: dose or concentration left out as unconfirmed; conditions: male, Sprague Dawley; rat subcutaneous tissue supernatant (SCts), 37° C, 2 h

Row | Compound | remaining at 2 h [1] [%] | Emax (% I) (CFR1R receptor) | EC50 (CFR1R receptor) [pM] | EC50 (human CRF2a receptor) [pM] | Buffer stability pH 4.5 % purity loss [2] | Buffer stability pH 7.4 % purity loss [2] | remaining at 2 h [3] [%] | Systolic blood pressure (Mean) % change from baseline, 8 h (Sprague Dawley rats) [%] | Systolic blood pressure (Mean) % change from baseline, 12 h (Sprague Dawley rats) [%] | Systolic blood pressure (Mean) % change from baseline, 24 h (Sprague Dawley rats) [%] | Duration of action (Sprague Dawley rats) [h] | remaining at 2 h [4] [%] | not cleaved (Minipig PLM) [% remaining at 2 hours] | not cleaved (Human PLM) [% remaining at 2 hours] | not cleaved (Rat PLM) [% remaining at 2 hours] | remaining at 2 h [5] [%]
1 | CC[C@H](NC(=O)[C@H](CC(N)=O)NC(=O)[C@@H](NC(=O)[C@H](CCC(=O)O)NC(=O)[C@H](C)NC(=O)[C@H](CCC(N)=O)NC(=O)[C@H](CCC(=O)O)NC(=O)[C@H](CCCNC(=N)N)NC(=O)[C@H](CCC(N)=O)NC(=O)[C@H](CCCCN)NC(=O)[C@H](CCCCN)NC(=O)[C@H](CCC(N)=O)NC(=O)[C@H](CCCCN)NC(=O)[C@H](CCC(=O)O)NC(=O)[C@H](CCC(N)=O)NC(=O)[C@H](CCC(=O)O)NC(=O)[C@H](CC(C)C)NC(=O)[C@H](CC(C)C)NC(=O)[C@@H](NC(=O)[C@H](CCCCN)NC(=O)[C@H](CCCCNC(=O)CC[C@H](NC(=O)CCCCCCCCCCCCCCC(=O)O)C(=O)O)NC(=O)[C@H](CC(C)C)NC(=O)[C@H](CCCCN)NC(=O)[C@@H](NC(=O)[C@@H]1CCCN1C(=O)[C@H](NC(=O)[C@H](CC(=O)O)NC(=O)[C@H](CC(C)C)NC(=O)[C@H](CO)NC(=O)[C@H](CC(C)C)NC(=O)[C@@H](NC(=O)[C@@H](NC(C)=O)[C@@H](C)CC)C(C)C)C(C)C)[C@@H](C)CC)[C@@H](C)CC)[C@@H](C)O)C(=O)N[C@@H](CCC(N)=O)C(=O)N[C@H](C(=O)N[C@@H](CC(C)C)C(=O)N[C@@H](C)C(=O)N[C@@H](CCC(N)=O)C(=O)N[C@H](C(N)=O)C(C)C)[C@@H](C)CC [compound 51] (Ac-IVLSLD[dV]PIKLK([γGlu-C16 diacid])KILLEQEKQKKQREQAETN[Abu]QILAQV-NH2) | 73 | 9 | > 250000 | 120 | 0/0 ^ % | 0/0 ^ % | 102 | −27 | −19 | −1 | 24 | 97 | – | – | – | –
2 | CC[C@H](C)[C@H](NC(C)=O)C(=O)N[C@H](C(=O)N[C@@H](CC(C)C)C(=O)N[C@@H](CO)C(=O)N[C@@H](CC(C)C)C(=O)N[C@@H](CC(=O)O)C(=O)N[C@@H](C(=O)N1CCC[C@H]1C(=O)N[C@H](C(=O)N[C@@H](CCCCN)C(=O)N[C@@H](CC(C)C)C(=O)N[C@@H](CCCCNC(=O)CC[C@H](NC(=O)CCCCCCCCCCCCCCC(=O)O)C(=O)O)C(=O)N[C@@H](CCCCN)C(=O)N[C@H](C(=O)N[C@@H](CC(C)C)C(=O)N[C@@H](CC(C)C)C(=O)N[C@@H](CCC(=O)O)C(=O)N[C@@H](CCC(N)=O)C(=O)N[C@@H](CCC(=O)O)C(=O)N[C@@H](CCCCN)C(=O)N[C@@H](CCC(N)=O)C(=O)N[C@@H](CCCCN)C(=O)N[C@@H](CCCCN)C(=O)N[C@@H](CCC(N)=O)C(=O)N[C@@H](CCCNC(=N)N)C(=O)N[C@@H](CCC(=O)O)C(=O)N[C@@H](CCC(N)=O)C(=O)N[C@@H](C)C(=O)N[C@@H](CCC(=O)O)C(=O)N[C@H](C(=O)N[C@@H](CC(N)=O)C(=O)NC1(C(=O)N[C@@H](CCC(N)=O)C(=O)N[C@H](C(=O)N[C@@H](CC(C)C)C(=O)N[C@@H](C)C(=O)N[C@@H](CCC(N)=O)C(=O)N[C@H](C(N)=O)C(C)C)[C@@H](C)CC)CCNCC1)[C@@H](C)O)[C@@H](C)CC)[C@@H](C)CC)C(C)C)C(C)C [compound 57] (Ac-IVLSLD[dV]PIKLK([γGlu-C16 diacid])KILLEQEKQKKQREQAETN[Api]QILAQV-NH2) | 96 | 24 | > 250000 | 390 | 0/0 ^ % | 0/0 ^ % | 104 | −34 | −25 | −2 | >24 | 81 | – | – | – | –
3 | Pentanoyl-VLSLDvPIKLK*KILLEQEKQKKQREQAETNAibQILAQV-NH2 | – | – | – | – | – | – | – | – | – | – | – | – | 104 | 101 | 98 | –
4 | Ac-IVLSLDvPIKLK*KILLEQEKQKKQREQAETNAibQILAQV-NH2 | – | – | – | – | – | – | – | – | – | – | – | – | 110 | 93 | 108 | –
5 | Ac-IVLSLDvPIKLK*KILLEQEKQKKQREQAETNAbuQILAQV-NH2 | – | – | – | – | – | – | – | – | – | – | – | – | 97 | 102 | – | –
6 | Ac-IVLSLDvPIKαMELK*KILLEQEKQKKQREQAETNAibQILAQV-NH2 | – | – | – | – | – | – | – | – | – | – | – | – | 106 | 97 | 95 | –
7 | CC[C@H](C)[C@H](NC(C)=O)C(=O)N[C@H](C(=O)N[C@@H](CC(C)C)C(=O)N[C@@H](CO)C(=O)N[C@@H](CC(C)C)C(=O)N[C@@H](CC(=O)O)C(=O)N[C@@H](C(=O)N1CCC[C@H]1C(=O)N[C@H](C(=O)N[C@@H](CCCCN)C(=O)N[C@@H](CC(C)C)C(=O)N[C@@H](CCCCNC(=O)CC[C@H](NC(=O)CCCCCCCCCCCCCCCCC(=O)O)C(=O)O)C(=O)N[C@@H](CCCCN)C(=O)N[C@H](C(=O)N[C@@H](CC(C)C)C(=O)N[C@@H](CC(C)C)C(=O)N[C@@H](CCC(=O)O)C(=O)N[C@@H](CCC(N)=O)C(=O)N[C@@H](CCC(=O)O)C(=O)N[C@@H](CCCCN)C(=O)N[C@@H](CCC(N)=O)C(=O)N[C@@H](CCCCN)C(=O)N[C@@H](CCCCN)C(=O)N[C@@H](CCC(N)=O)C(=O)N[C@@H](CCCNC(=N)N)C(=O)N[C@@H](CCC(=O)O)C(=O)N[C@@H](CCC(N)=O)C(=O)N[C@@H](C)C(=O)N[C@@H](CCC(=O)O)C(=O)N[C@H](C(=O)N[C@@H](CC(N)=O)C(=O)NC(C)(C)C(=O)N[C@@H](CCC(N)=O)C(=O)N[C@H](C(=O)N[C@@H](CC(C)C)C(=O)N[C@@H](C)C(=O)N[C@@H](CCC(N)=O)C(=O)N[C@H](C(N)=O)C(C)C)[C@@H](C)CC)[C@@H](C)O)[C@@H](C)CC)[C@@H](C)CC)C(C)C)C(C)C [compound 125] (Ac-IVLSLD[dV]PIKLK([γGlu-C18 diacid])KILLEQEKQKKQREQAETN[Aib]QILAQV-NH2) | 108 | 18 | > 250000 | 150 | – | 0/nd ^ % | 93 | −25 | −16 | 1 | 22 | 110 | – | – | – | 79
8 | NMeIVLSLDvPIKLK*KILLEQEKQKKQREQAETNAibQILAQV-NH2 | – | – | – | – | – | – | – | – | – | – | – | – | 126 | 91 | 128 | –
